Laboratory results published in PubChem BioAssay (NCI).
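Method: 48-hour compound exposure of cells in 96-well plates, five concentrations, linear interpolation of endpoints. Abbreviation: GI50, concentration required for 50% inhibition of growth. TGI is the concentration that stops growth completely.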

Columns and labels:
Assay in all cases: NCI-60 cell line screen, 48 h
[1] = test system: UACC-62 melanoma
[2] = test system: NCI-H226 lung
[3] = test system: NCI/ADR-RES ovarian
[4] = test system: SK-MEL-2 melanoma
[5] = test system: K-562 leukemia
[6] = test system: MALME-3M melanoma
[7] = test system: SK-OV-3 ovarian
[8] = test system: SK-MEL-28 melanoma
[9] = test system: HOP-62 NSCLC
[10] = test system: MDA-MB-435
[11] = test system: SR leukemia
[12] = test system: SNB-19 CNS
[13] = test system: CCRF-CEM leukemia
[14] = test system: HL-60(TB) leukemia
[15] = test system: LOX IMVI melanoma
[16] = test system: SN12C renal
[17] = test system: ACHN renal
[18] = test system: 786-0 renal
[19] = test system: HS 578T breast
[20] = test system: COLO 205 colon
[21] = test system: RPMI-8226 leukemia
[22] = test system: UO-31 renal
[23] = test system: CAKI-1 renal
[24] = test system: SW-620 colon
[25] = test system: SNB-75 CNS
[26] = test system: SF-295 CNS
[27] = test system: PC-3 prostate
[28] = test system: KM12 colon
[29] = test system: UACC-257 melanoma
[30] = test system: HT29 colon
[31] = test system: EKVX NSCLC
[32] = test system: M14 melanoma
[33] = test system: HCT-116 colon
[34] = test system: HCC-2998 colon
[35] = test system: IGROV1 ovarian
[36] = test system: A549 NSCLC
[37] = test system: RXF 393 renal
[38] = test system: OVCAR-4 ovarian
[39] = test system: SF-268 CNS
[40] = test system: U251 CNS
[41] = test system: MOLT-4 leukemia
[42] = test system: OVCAR-5 ovarian
[43] = test system: SF-539 CNS
[44] = test system: T-47D breast
[45] = test system: MCF7 breast
[46] = test system: NCI-H522 lung
[47] = test system: TK-10 renal
[48] = test system: OVCAR-3 ovarian
[49] = test system: MDA-MB-231 breast
[50] = test system: HCT-15 colon
[51] = test system: A498 renal
[52] = test system: NCI-H460 lung
[53] = test system: SK-MEL-5 melanoma
[54] = test system: DU-145 prostate
[55] = test system: BT-549 breast
[56] = test system: OVCAR-8 ovarian
[57] = test system: HOP-92 NSCLC
[58] = test system: NCI-H23 lung

Compound CN1CCN(c2cc(Nc3cc(C4CC4)[nH]n3)nc(Nc3ccc(CC(=O)NCc4cccc(F)c4)cc3)n2)CC1 has a GI50 [1] of 1620 nM, a TGI [1] of 16200 nM and a GI50 [2] of 534 nM. For the same compound, the TGI [2] was 10900 nM, the GI50 [3] was 18800 nM and the TGI [3] was greater than 100000 nM. The GI50 [4] was 1990 nM, the TGI [4] was 9320 nM and the GI50 [5] was 423 nM. It also gave a TGI [5] of 11600 nM, a GI50 [6] of 496 nM and a TGI [6] of 4550 nM. For the same compound, the GI50 [7] was 932 nM, the TGI [7] was 12900 nM and the GI50 [8] was 971 nM. The TGI [8] was 2460 nM, the GI50 [9] was 754 nM and the TGI [9] was 14400 nM. For the same compound, the GI50 [10] was 440 nM, the TGI [10] was 2630 nM and the GI50 [11] was 293 nM. For the same compound, the TGI [11] was greater than 20400 nM, the GI50 [12] was 2250 nM and the TGI [12] was 23400 nM. For the same compound, the GI50 [13] was 49.5 nM, the TGI [13] was 7490 nM and the GI50 [14] was 713 nM. The TGI [14] was 3060 nM, the GI50 [15] was 219 nM and the TGI [15] was 1480 nM. The GI50 [16] was 756 nM, the TGI [16] was 14400 nM and the GI50 [17] was 2010 nM. The TGI [17] was 10600 nM, the GI50 [18] was 934 nM and the TGI [18] was 4040 nM. For the same compound, the GI50 [19] was 280 nM, the TGI [19] was 2340 nM and the GI50 [20] was 71.3 nM. The TGI [20] was 607 nM, the GI50 [21] was 2000 nM and the TGI [21] was 6520 nM. It also gave a GI50 [22] of 1690 nM, a TGI [22] of 4730 nM and a GI50 [23] of 823 nM. For the same compound, the TGI [23] was 4740 nM, the GI50 [24] was 120 nM and the TGI [24] was 2720 nM. It also gave a GI50 [25] of 168 nM, a TGI [25] of 778 nM and a GI50 [26] of 1990 nM. For the same compound, the TGI [26] was 10300 nM, the GI50 [27] was 616 nM and the TGI [27] was 22800 nM. For the same compound, the GI50 [28] was 67.1 nM, the TGI [28] was 12100 nM and the GI50 [29] was 1130 nM. It also gave a TGI [29] of 2940 nM, a GI50 [30] of 379 nM and a TGI [30] of 11600 nM. The GI50 [31] was 3410 nM, the TGI [31] was 32400 nM and the GI50 [32] was 752 nM. The TGI [32] was 2410 nM, the GI50 [33] was 211 nM and the TGI [33] was 6870 nM. For the same compound, the GI50 [34] was 1150 nM, the TGI [34] was 12100 nM and the GI50 [35] was 237 nM. It also gave a TGI [35] of 2970 nM, a GI50 [36] of 770 nM and a TGI [36] of 11300 nM. It also gave a GI50 [37] of 404 nM, a TGI [37] of 1710 nM and a GI50 [38] of 1550 nM. The TGI [38] was 22000 nM, the GI50 [39] was 1230 nM and the TGI [39] was 12300 nM. It also gave a GI50 [40] of 978 nM, a TGI [40] of 5240 nM and a GI50 [41] of 248 nM. It also gave a TGI [41] of 19800 nM, a GI50 [42] of 432 nM and a TGI [42] of 15800 nM. For the same compound, the GI50 [43] was 858 nM, the TGI [43] was 2280 nM and the GI50 [44] was 2270 nM. The TGI [44] was 13800 nM, the GI50 [45] was 108 nM and the TGI [45] was 2050 nM. For the same compound, the GI50 [46] was 1530 nM, the TGI [46] was 7080 nM and the GI50 [47] was 2920 nM. The TGI [47] was 16100 nM, the GI50 [48] was 1590 nM and the TGI [48] was 16500 nM. The GI50 [49] was 451 nM, the TGI [49] was 6160 nM and the GI50 [50] was 2900 nM. It also gave a TGI [50] of 14500 nM, a GI50 [51] of 143 nM and a TGI [51] of 967 nM. The GI50 [52] was 536 nM, the TGI [52] was 3680 nM and the GI50 [53] was 1420 nM. It also gave a TGI [53] of 3080 nM, a GI50 [54] of 2030 nM and a TGI [54] of 11500 nM. The GI50 [55] was 2960 nM, the TGI [55] was 19900 nM and the GI50 [56] was 2180 nM. It also gave a TGI [56] of 30100 nM, a GI50 [57] of 288 nM and a TGI [57] of 4800 nM. For the same compound, the GI50 [58] was 1050 nM and the TGI [58] was 9740 nM.
